Measured values published in ChEMBL document CHEMBL1130360, “3-[(3-Hydroxymethyl)-4-hydroxybutyl]imidazo[4,5-b]pyridinesnovel antiviral agents” (Bioorg Med Chem Lett, 1997).
Values after ≈ are worked out from the molar mass of the structure shown.

Tests used:
[1] = system: HEL; experiment: Cytotoxicity of compound against varicella zoster virus infected human embryonic lung cells; format: functional
[2] = Selectivity is determined by CC50/EC50 of cytopathic effect inhibition against herpes simplex virus 1; format: functional
[3] = system: Human alphaherpesvirus 1; experiment: The compound was tested for the cytopathic effect inhibition against herpes simplex virus 1; Effective concentration required to inhibit 50% virus proliferation; format: functional, organism-based
[4] = system: Human alphaherpesvirus 2; experiment: (§1) The compound was tested for the cytopathic effect inhibition against herpes simplex virus 2; Effective concentration required to inhibit 50% virus proliferation; format: functional, organism-based
[5] = Selectivity is determined by CC50/EC50 of cytopathic effect inhibition against herpes simplex virus 2; format: functional
[6] = Selectivity is determined by CC50/EC50 of cytomegalovirus; format: functional
[7] = Selectivity is determined by CC50/EC50 of VZV virus; format: functional
[8] = system: Human betaherpesvirus 5; experiment: The compound was tested for the cytomegalovirus; Effective concentration required to inhibit 50% virus proliferation; format: functional, organism-based
[9] = system: HEL; experiment: Cytotoxicity of compound against human cytomegalo virus infected human embryonic lung cells; format: functional
[10] = system: HEL; experiment: Cytotoxicity of compound against herpes simplex virus-2 infected human embryonic lung cells; format: functional
[11] = system: Human alphaherpesvirus 3; experiment: The compound was tested for the viral plaque reduction against VZV virus; Effective concentration required to inhibit 50% virus proliferation; format: functional, organism-based
[12] = system: Human alphaherpesvirus 2; experiment: The compound was tested for the viral plaque reduction against herpes simplex virus 2; Effective concentration required to inhibit 50% virus proliferation; format: functional, organism-based
[13] = system: Human alphaherpesvirus 3; experiment: as §1
[14] = Selectivity is determined by CC50/EC50 of viral plaque reduction against herpes simplex virus 2; format: functional
[15] = system: Human alphaherpesvirus 1; experiment: The compound was tested for the viral plaque reduction against herpes simplex virus 1; Effective concentration required to inhibit 50% virus proliferation; format: functional, organism-based
[16] = system: HEL; experiment: The compound was tested for the viral plaque reduction against herpes simplex virus 2; Cytotoxicity concentration required to reduce 50% human embryonic lung cells; format: functional
[17] = Selectivity is determined by CC50/EC50 of viral plaque reduction against herpes simplex virus 1; format: functional
[18] = system: HEL; experiment: Cytotoxicity of compound against herpes simplex virus 1 infected human embryonic lung cells; format: functional

SMILES	CC50 [1] [µg/mL]	SI [2]	EC50 [3] [µg/mL]	EC50 [4] [µg/mL]	SI [5]	SI [6]	SI [7]	EC50 [8] [µg/mL]	CC50 [9] [µg/mL]	CC50 [10] [µg/mL]	EC50 [11] [µg/mL]	EC50 [12] [µg/mL]	EC50 [13] [µg/mL]	SI [14]	EC50 [15] [µg/mL]	CC50 [16] [µg/mL]	SI [17]	CC50 [18] [µg/mL]
OCC(CO)CCn1cnc2nc(Cl)c(Cl)cc21	> 100	0	> 100	> 100	0	0	>2	> 100	> 100	> 100	49.8 (≈ 172 µM)	–	–	–	–	–	–	–
Nc1nc2c(ncn2COCCO)c(=O)[nH]1 [ACYCLOVIR]	–	–	–	0.2 (≈ 0.888 µM)	–	–	–	–	–	–	–	1.1 (≈ 4.88 µM)	0.6 (≈ 2.66 µM)	–	–	–	–	–
Nc1nc2c(cc1Cl)nc(C(F)(F)F)n2CCC(CO)CO	> 100	>83	1.2 (≈ 3.54 µM)	> 100	0	0	–	> 100	> 100	> 100	–	> 100	–	0	> 100	> 100	0	–
CC(=O)OCC(CCn1cnc2cc(Cl)c(Cl)nc21)COC(C)=O	–	–	–	–	–	–	–	132 (≈ 353 µM)	–	–	–	–	–	–	–	–	–	–
OCC(CO)CCn1cnc2cc(Cl)c(Cl)nc21	> 100	0	> 100	> 100	0	0	>8.5	> 100	> 100	> 100	11.7 (≈ 40.3 µM)	–	–	–	–	–	–	> 100
Nc1nc2c(ncn2COC(CO)CO)c(=O)[nH]1 [GANCICLOVIR]	–	–	–	–	–	–	–	0.1 (≈ 0.392 µM)	–	–	–	–	–	–	–	–	–	–
